The values that follow come from patent US20230225315A1, “METHODS OF DELIVERING PLANT VIRUS-BASED NANOPESTICIDES” (priority 2019, published 2023).

Data set [1] is described as follows: Soil column mobility (soil transport behaviour). It counts as physicochemical. The method, then:
[…] […] (pH 7.0) to the centre of the soil surface at the top of the column We added 10 mM KP buffer (pH 7.0) at a constant flow rate of 1.5 ml min^−1 and collected the eluent in 500-μL fractions. Up to 150 fractions were collected in each trial (two trials for each formulation and depth) and stored at 4° C.
The elution fractions containing TMGMV, PhMV or CPMV were analysed by SDS-PAGE to determine the mass of nanoparticles recovered in each elution fraction. […] TMGMV and PhMV were analysed on 4-12% NuPage polyacrylamide SDS gels cast according to the Surecast Handcast protocol (Invitrogen). […]
All nanoparticles were imaged in triplicate and the images were analysed using ImageJ The area under the curve (AUC) of the standards was used to create a linear standard curve relating the AUC of the elution samples to the total mass of nanoparticles present in the corresponding elution fraction. […]
To establish the soil transport behaviour of each formulation, we conducted mobility studies using a cylindrical column of diameter 28 mm packed with topsoil at a constant bulk density of 0.32 g cm^−3. […] Fractions containing virus-based formulations were analysed by SDS-PAGE to determine the mass of recovered nanoparticles. […]

A further data set has as its system nematode. The following applies: concentration to be achieved in the rhizosphere; cited from earlier work.
The conditions of data set [2]: cited from earlier work.

Regarding Cyanine 5 [Cy5], the “soil depth penetrated by free Cy5” value in data set [1] (500 μg free Cy5, soil column 10 mm diameter) is no more than 4 cm. The “mass of injected Cy5 recovered” value in data set [1] (free Cy5, column with a soil depth of 2 cm) was “About 40%”.
Turning to abamectin, the IC50 value with nematode is listed as 1.309×10^−4 mg cm^−3. In data set [2], the solubility in water result is “insoluble”.
